The results in this text go back to patent US20130296363A1, “QUINOLINE AND ISOQUINOLINE DERIVATIVES FOR USE AS JAK MODULATORS” (AMBIT BIOSCIENCES CORPORATION, priority 2010, published 2013).

The target of one assay is T1, TYK2 (Homo sapiens, UniProt P29597).
T1 construct: made in house
Kind of assay: Competition binding assay to determine Kd against JAK kinases: TYK2. On the procedure: (§1) Competition binding assays used herein were developed, validated and performed as described in Fabian et al., Nature Biotechnology 2005, 23, 329-336. Kinases were produced as fusions to T7 phage (See, Fabian et al. or WO04/015142) or alternatively, the kinases were expressed in HEK-293 cells and subsequently tagged with DNA for PCR detection (See, WO08/005,310). For the binding assays, streptavidin-coated magnetic beads were treated with biotinylated affinity ligands for 30 min at rt to generate affinity resins. The liganded beads were blocked with excess biotin and washed with blocking buffer (SeaBlock (Pierce), 1% BSA, 0.05% Tween 20, 1 mM DTT) to remove unbound ligand and to reduce non-specific binding. Binding reactions were assembled by combining kinase, liganded affinity beads, and test compounds in 1× binding buffer (20% SeaBlock, 0.17×PBS, 0.05% Tween 20, 6 mM DTT). Test compounds were prepared as 100× stocks in DMSO and rapidly diluted into the aqueous environment. DMSO was added to control assays lacking a test compound. Primary screen interactions were performed in polypropylene 384-well plates in a final volume of 34 μL, while Kd determinations were performed in polystyrene 96-well plates in a final volume of 135 μL. The assay plates were incubated at room temperature with shaking for 1 hour, long enough for binding reactions to reach equilibrium, and the affinity beads were washed extensively with wash buffer (1×PBS, 0.05% Tween 20) to remove unbound protein. The beads were then resuspended in elution buffer (1×PBS, 0.05% Tween 20, 2 μM non-biotinylated affinity ligand) and incubated at room temperature with shaking for 30 min. The kinase concentration in the eluates was measured by quantitative PCR. Each kinase was tested individually against each compound. Kds were determined using eleven serial threefold dilutions. A selectivity score, which is a quantitative measure of selectivity of a compound against a panel of enzymes, may be calculated for a compound by dividing the number of enzymes for which a compound meets a set criteria, (for example, a binding constant of 100 nM or less), by the total number of enzymes tested.

In a further assay the target is T2, JAK2 (Homo sapiens, UniProt O60674).
T2 construct: made in house
Kind of assay: Competition binding assay to determine Kd against JAK kinases: JAK2. On the procedure: as §1

Assay [1] deals with GM-CSFR/JAK2/STAT5 pathway in CSTF-1 cells. Kind of assay: CSTF-1 cell-based reporter assay (beta-lactamase reporter, GM-CSF stimulated). As to conditions: Homo sapiens, GM-CSF at 2 ng/mL, 4 hours, read-out: Cell Assay: CS TF-1 reporter assay IC50. How it is done: CSTF-1 cells are derived from the human erythroleukemia cell line that is growth dependent on GM-CSF and has an intact GM-CSFR/JAK2/STAT5 pathway. The cell line contains stably integrated beta-lactamase reporter gene under the control of the […] (irf 1) response element recognized by the activated transcription factor STAT5. csTF-1 cells (Invitrogen K1219) were washed with assay media (97% OPTIMEM/0.5% dialyzed FBS/0.1 mM NEAA/1 mM Na pyr/P/S) and seeded in the same media at 5×10^5 cell/mL in T150 flask. After 16 hour incubation, cells were seeded at 2×10^5 cell/well in 50 μl volume, into Costar, clear bottom, 96-well assay plates. Serial dilutions of compounds were added to the plates with final DMSO concentration at 0.5% and GM-CSF at 2 ng/mL and the plates were then incubated at 30° C. and 5% CO2 for 4 hours. The plates were brought to room temperature before adding Substrate Mixture according to manufacturer's protocol (Invitrogen, Catalog #K1085). The assay plates containing the substrate mixture were incubated in the dark at room temperature for 2 hours. Blue and green fluorescence was measured with excitation at 409 nm and emission at 460 nm (for blue) and excitation at 409 nm and emission at 530 nm (for green) using Spectra Max Gemini EM.
(In general: A reporter such as luciferase makes a cellular process visible.)

The target of the next assay is T3, JAK3 (Homo sapiens, UniProt P52333).
T3 construct: made in house
T3 sequence (P52333 1-1124): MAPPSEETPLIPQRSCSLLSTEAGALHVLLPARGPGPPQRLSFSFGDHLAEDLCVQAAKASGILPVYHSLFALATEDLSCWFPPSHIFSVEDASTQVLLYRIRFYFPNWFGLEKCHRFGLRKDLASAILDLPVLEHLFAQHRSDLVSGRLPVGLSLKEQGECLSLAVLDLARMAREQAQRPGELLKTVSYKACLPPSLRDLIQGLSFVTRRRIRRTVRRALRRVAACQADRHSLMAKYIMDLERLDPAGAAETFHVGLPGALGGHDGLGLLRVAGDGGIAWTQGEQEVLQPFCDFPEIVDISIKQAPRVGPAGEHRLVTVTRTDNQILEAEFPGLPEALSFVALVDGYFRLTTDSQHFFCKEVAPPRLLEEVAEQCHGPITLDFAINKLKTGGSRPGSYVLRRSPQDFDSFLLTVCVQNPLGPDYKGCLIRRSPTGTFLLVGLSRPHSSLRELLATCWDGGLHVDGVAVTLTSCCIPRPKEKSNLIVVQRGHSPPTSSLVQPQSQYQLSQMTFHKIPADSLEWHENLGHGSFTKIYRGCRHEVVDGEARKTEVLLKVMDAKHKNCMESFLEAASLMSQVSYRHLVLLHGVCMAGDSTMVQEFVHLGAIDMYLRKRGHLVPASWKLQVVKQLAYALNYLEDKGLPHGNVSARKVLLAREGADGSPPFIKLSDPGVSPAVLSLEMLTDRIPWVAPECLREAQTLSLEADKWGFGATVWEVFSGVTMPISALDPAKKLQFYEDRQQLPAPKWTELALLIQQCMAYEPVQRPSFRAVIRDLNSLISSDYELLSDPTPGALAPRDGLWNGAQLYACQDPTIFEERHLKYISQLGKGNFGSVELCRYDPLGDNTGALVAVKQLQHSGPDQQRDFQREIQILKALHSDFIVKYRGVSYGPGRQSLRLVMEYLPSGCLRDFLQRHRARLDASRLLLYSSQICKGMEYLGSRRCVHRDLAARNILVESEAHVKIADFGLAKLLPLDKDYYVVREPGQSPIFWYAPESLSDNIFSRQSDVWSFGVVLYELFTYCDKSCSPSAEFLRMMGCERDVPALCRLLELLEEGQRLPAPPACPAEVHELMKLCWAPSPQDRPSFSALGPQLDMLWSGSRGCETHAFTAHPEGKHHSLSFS
Briefly: Competition binding assay to determine Kd against JAK kinases: JAK3. On the procedure:
as §1

Assay [2] relates to panel of distinct kinases excluding mutant variants, typically 359 or 386 kinases. Kind of assay: Kinase selectivity score S10 from competition binding panel. Conditions: compound at 10 μM; fraction of kinases with inhibition of 90% or greater. How it is done:
as §1

T2 sequence (O60674 whole entry): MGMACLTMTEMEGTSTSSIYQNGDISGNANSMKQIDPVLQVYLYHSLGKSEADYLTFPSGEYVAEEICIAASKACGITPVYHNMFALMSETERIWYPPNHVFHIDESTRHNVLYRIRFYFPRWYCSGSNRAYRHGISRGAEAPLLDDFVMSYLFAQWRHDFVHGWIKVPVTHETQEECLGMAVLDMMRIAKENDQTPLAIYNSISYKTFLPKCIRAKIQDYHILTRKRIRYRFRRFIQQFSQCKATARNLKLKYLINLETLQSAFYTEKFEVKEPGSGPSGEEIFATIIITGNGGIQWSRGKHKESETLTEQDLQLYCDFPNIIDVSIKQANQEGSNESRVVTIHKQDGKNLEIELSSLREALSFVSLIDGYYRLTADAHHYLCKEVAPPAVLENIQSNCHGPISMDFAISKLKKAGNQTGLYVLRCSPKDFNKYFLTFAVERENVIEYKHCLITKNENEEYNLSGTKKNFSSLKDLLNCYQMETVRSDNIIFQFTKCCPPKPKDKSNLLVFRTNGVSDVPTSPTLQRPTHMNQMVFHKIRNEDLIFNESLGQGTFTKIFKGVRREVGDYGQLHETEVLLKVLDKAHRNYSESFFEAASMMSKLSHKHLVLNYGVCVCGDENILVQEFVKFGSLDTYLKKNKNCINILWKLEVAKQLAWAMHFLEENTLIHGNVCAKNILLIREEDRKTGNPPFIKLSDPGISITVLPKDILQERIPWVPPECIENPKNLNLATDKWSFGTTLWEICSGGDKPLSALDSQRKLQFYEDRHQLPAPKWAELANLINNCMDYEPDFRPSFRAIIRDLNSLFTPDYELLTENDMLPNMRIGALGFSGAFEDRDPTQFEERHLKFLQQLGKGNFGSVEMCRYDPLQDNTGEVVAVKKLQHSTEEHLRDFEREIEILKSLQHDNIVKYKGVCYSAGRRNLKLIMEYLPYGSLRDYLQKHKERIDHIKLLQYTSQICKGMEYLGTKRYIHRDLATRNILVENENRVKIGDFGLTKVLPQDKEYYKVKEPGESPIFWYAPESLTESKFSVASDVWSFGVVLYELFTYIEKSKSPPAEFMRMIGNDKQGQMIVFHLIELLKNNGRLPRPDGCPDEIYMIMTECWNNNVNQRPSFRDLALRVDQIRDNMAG
T1 sequence (P29597 whole entry): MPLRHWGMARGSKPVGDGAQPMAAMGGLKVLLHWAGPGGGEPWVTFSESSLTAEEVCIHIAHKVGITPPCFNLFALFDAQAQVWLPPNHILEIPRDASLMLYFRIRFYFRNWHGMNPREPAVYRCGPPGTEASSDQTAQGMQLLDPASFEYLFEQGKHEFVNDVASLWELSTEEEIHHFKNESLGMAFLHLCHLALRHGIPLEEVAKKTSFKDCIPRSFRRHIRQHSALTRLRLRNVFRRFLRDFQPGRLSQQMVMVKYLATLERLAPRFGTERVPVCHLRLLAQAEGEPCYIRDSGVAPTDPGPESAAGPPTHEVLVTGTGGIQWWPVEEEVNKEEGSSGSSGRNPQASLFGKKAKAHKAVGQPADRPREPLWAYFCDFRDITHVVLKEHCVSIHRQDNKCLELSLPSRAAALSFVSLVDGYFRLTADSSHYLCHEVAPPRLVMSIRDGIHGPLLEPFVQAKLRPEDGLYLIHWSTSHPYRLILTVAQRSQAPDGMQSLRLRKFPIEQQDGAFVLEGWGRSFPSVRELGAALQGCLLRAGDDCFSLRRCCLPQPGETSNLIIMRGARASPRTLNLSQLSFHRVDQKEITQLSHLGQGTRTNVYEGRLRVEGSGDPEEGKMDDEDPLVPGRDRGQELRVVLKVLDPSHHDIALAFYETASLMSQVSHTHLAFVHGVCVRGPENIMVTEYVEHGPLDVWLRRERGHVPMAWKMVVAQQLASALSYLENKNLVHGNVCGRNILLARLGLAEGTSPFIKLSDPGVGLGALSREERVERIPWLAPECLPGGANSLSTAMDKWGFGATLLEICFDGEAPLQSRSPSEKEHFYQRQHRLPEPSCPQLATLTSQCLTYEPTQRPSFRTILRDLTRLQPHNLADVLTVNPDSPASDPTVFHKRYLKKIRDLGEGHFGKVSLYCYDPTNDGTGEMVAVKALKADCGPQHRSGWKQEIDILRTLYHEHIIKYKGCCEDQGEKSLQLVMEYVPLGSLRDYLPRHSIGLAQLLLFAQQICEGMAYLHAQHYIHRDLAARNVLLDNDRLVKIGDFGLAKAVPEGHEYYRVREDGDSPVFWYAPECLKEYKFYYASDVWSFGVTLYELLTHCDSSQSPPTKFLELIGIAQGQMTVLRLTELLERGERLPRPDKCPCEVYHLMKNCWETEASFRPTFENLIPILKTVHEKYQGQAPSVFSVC

Usually Kd stands for the equilibrium constant for the complex coming apart. Low readings indicate a tighter complex, high ones a looser complex. One may read the IC50 as the concentration that gives 50% inhibition. Regarding `Cc1cc(Nc2nc(C(O)c3ccc(F)cc3)cc3ccccc23)n[nH]1` (racemic) [Example 2, (R,S)-(4-fluorophenyl)(1-(5-methyl-1H-pyrazol-3-ylamino)isoquinolin-3-yl)methanol], the Kd was not above 10 nM on TYK2, not above 5 nM on JAK2 and not above 10 nM on JAK3. The IC50 in assay [1] was not above 100 nM.
Consider `Cc1coc(Nc2nc([S+]([O-])c3ccc(F)cc3)cc3ccccc23)n1` (racemic) [Example 22, (R,S)—N-(3-(4-fluorophenylsulfinyl)isoquinolin-1-yl)-4-methyloxazol-2-amine], for which the Kd was more than 50 nM at JAK2 and more than 100 nM at JAK3. In assay [2], the “S-Score: S(10) at 10 μM” value was “A (A ≦ 0.3)”. Further, the IC50 in assay [1] was more than 500 nM.
Regarding `Cc1cc(Nc2nc(C(=O)c3ccc(F)cc3)cc3ccccc23)n[nH]1` [Example 1, (4-fluorophenyl)(1-(5-methyl-1H-pyrazol-3-ylamino)isoquinolin-3-yl)methanone], the Kd on TYK2 was not above 10 nM; on JAK2 it was not above 5 nM; at JAK3, 10 to 100 nM. Besides, the “S-Score: S(10) at 10 μM” value in assay [2] is reported as “A (A ≦ 0.3)”. The IC50 in assay [1] lay in the range of 100 to 500 nM.
For `Cc1cc(Nc2nc(S(=O)(=O)c3ccc(F)cc3)cc3ccccc23)n[nH]1` [Example 10, 3-(4-fluorophenylsulfonyl)-N-(5-methyl-1H-pyrazol-3-yl)isoquinolin-1-amine] the same measures were not above 10 nM, not above 5 nM, not above 10 nM, “D (D > 0.5)” and not above 100 nM.
With `[O-][S+](c1ccc(F)cc1)c1cc2ccccc2c(Nc2nccs2)n1` (stereo not shown) [Example 11, N-(3-(4-fluorophenylsulfinyl)isoquinolin-1-yl)thiazol-2-amine], the Kd on JAK2 is not above 5 nM; on JAK3 it was 10 to 100 nM. Moreover, the “S-Score: S(10) at 10 μM” value in assay [2] was “A (A ≦ 0.3)”. In assay [1], the IC50 was not above 100 nM.
Consider `Cc1cnc(Nc2nc([S+]([O-])c3ccc(F)cc3)cc3ccccc23)s1` (stereo not shown) [Example 12, N-(3-(4-fluorophenylsulfinyl)isoquinolin-1-yl)-5-methylthiazol-2-amine], for which the Kd was not above 10 nM at TYK2, not above 5 nM on JAK2 and 10 to 100 nM at JAK3. Moreover, in assay [2], the “S-Score: S(10) at 10 μM” value was “C (0.4 < C ≦ 0.5)”. Besides, in assay [1], the IC50 is not above 100 nM.
The matching figures for `Cc1cc(Nc2nc([S+]([O-])c3ccc(F)cc3)cc3ccccc23)n[nH]1` (stereo not shown) [Example 13, 3-(4-fluorophenylsulfinyl)-N-(5-methyl-1H-pyrazol-3-yl)isoquinolin-1-amine]: not above 10 nM, not above 5 nM, not above 10 nM, “D (D > 0.5)” and not above 100 nM.
The matching figures for `O=S(=O)(c1ccc(F)cc1)c1cc2ccccc2c(Nc2cc[nH]n2)n1` [Example 14, 3-(4-fluorophenylsulfonyl)-N-(1H-pyrazol-3-yl)isoquinolin-1-amine]: not above 10 nM, not above 5 nM, not above 10 nM, “B (0.3 < B ≦ 0.4)” and not above 100 nM.
Take `COc1cc(Nc2nc(S(=O)(=O)c3ccc(F)cc3)cc3ccccc23)n[nH]1` [Example 15, 3-(4-fluorophenylsulfonyl)-N-(5-methoxy-1H-pyrazol-3-yl)isoquinolin-1-amine]: the Kd is not above 10 nM on TYK2, not above 5 nM at JAK2 and not above 10 nM on JAK3. Further, in assay [2], the “S-Score: S(10) at 10 μM” value is reported as “D (D > 0.5)”. Moreover, in assay [1], the IC50 is not above 100 nM.
On to `Cc1cnc(Nc2nc(S(=O)(=O)c3ccc(F)cc3)cc3ccccc23)s1` [Example 16, N-(3-(4-fluorophenylsulfonyl)isoquinolin-1-yl)-5-methylthiazol-2-amine], for which the figures for the Kd at TYK2, on JAK2 and on JAK3 were not above 10 nM, not above 5 nM and not above 10 nM, respectively. Moreover, the “S-Score: S(10) at 10 μM” value in assay [2] is “B (0.3 < B ≦ 0.4)”. Moreover, in assay [1], the IC50 was not above 100 nM.
In the case of `O=S(=O)(c1ccc(F)cc1)c1cc2ccccc2c(Nc2nccs2)n1` [Example 17, N-(3-(4-fluorophenylsulfonyl)isoquinolin-1-yl)thiazol-2-amine], the Kd at TYK2 was 10 to 100 nM; on JAK2, not above 5 nM; on JAK3 it was 10 to 100 nM. Also, in assay [2], the “S-Score: S(10) at 10 μM” value was “A (A ≦ 0.3)”. For the same compound, the IC50 in assay [1] lay in the range of 100 to 500 nM.
On to `O=S(=O)(c1ccc(F)cc1)c1cc2ccccc2c(Nc2ncns2)n1` [Example 18, N-(3-(4-fluorophenylsulfonyl)isoquinolin-1-yl)-1,2,4-thiadiazol-5-amine], for which the dissociation constant Kd on TYK2 is not above 10 nM; on JAK2, not above 5 nM; at JAK3, 10 to 100 nM. For the same compound, the “S-Score: S(10) at 10 μM” value in assay [2] is given as “B (0.3 < B ≦ 0.4)”. Moreover, in assay [1], the IC50 fell in the range of 100 to 500 nM.
The matching figures for `O=S(=O)(c1ccc(F)cc1)c1cc2ccccc2c(Nc2cc(O)[nH]n2)n1` [Example 19, 3-(3-(4-fluorophenylsulfonyl)isoquinolin-1-ylamino)-1H-pyrazol-5-ol]: 10 to 100 nM, 5 to 50 nM, more than 100 nM, “A (A ≦ 0.3)” and more than 500 nM.
For `Cn1cnc(Nc2nc(S(=O)(=O)c3ccc(F)cc3)cc3ccccc23)c1` [Example 20, 3-(4-fluorophenylsulfonyl)-N-(1-methyl-1H-imidazol-4-yl)isoquinolin-1-amine] the same measures were not above 10 nM, not above 5 nM, not above 10 nM, “C (0.4 < C ≦ 0.5)” and not above 100 nM.
